These results are taken from US20190085404A1, “METHODS OF IDENTIFYING AND TREATING IMMUNE CHECKPOINT INHIBITOR-RESPONSIVE NEOPLASMS AND CELLS, TRANSGENIC ANIMALS AND KITS FOR USE THEREIN” (The Board of Trustees of the Leland Stanford Junior …, priority 2016, published 2019).

The test system of assay [1] is human T-ALL cell line Jurkat. In words: CD47, PD-L1 and MYC expression in Jurkat cells after MYC inhibition. The class given is cell-based. How it is done:
(§1) Hematopoietic tumor cell lines (MYC T-ALL 4188 cells derived from the transgenic mouse model, human P493-6, human T-ALL Jurkat, and human T-ALL CCRF-CEM) were grown in RPMI 1640 supplemented with 10% FBS, 1% penicillin/streptomycin, 50 μM 2-mercaptoethanol at 37° C. in 5% CO2. Solid human tumor cell lines (H1299, SKMEL28), mouse MYC HCC, and human HEPG2 were grown in DMEM supplemented with 10% FBS and 1% penicillin/streptomycin at 37° C. in 5% CO2. To turn off expression of the MYC transgene, cells were treated with 20 ng/mL Dox. Primary human T-ALL cells were obtained from four deidentified patient samples and were cultured as previously described (Bruserud et al. 2003). Briefly, cells were cultured in StemSpan H3000 (StemCell) supplemented with human stem cell factor (50 ng/ml), human IL-7 (20 ng/ml), human IL-3 (20 ng/ml), and human FLT3 ligand (20 ng/ml) (Peprotech). Human cell lines were purchased from ATCC. […]
(§2) All tissues and cells were flash-frozen in liquid nitrogen and stored at −80° C. until RNA preparation. […] Data was analyzed using the cycle threshold method (normalized to UBC). […]
(§3) Tissues were manually dissociated between microscope slides and strained to remove debris. […] Labeled cells were analyzed on a FACSCalibur (Becton Dickinson), and data was analyzed using FlowJo (Treestar). […]
(§4) FIG. 1A: Flow cytometry median fluorescence intensity (MFI) was used to determine the relative cell surface expression of CD47, PD-L1, and other immune proteins following MYC inactivation in MYC T-ALL 4188 cells in vitro (n=3). FIG. 1B: Tumors were harvested from primary MYC-driven lymphomas 0 or 4 days following MYC inactivation. mRNA and protein levels were quantified by qPCR and flow cytometry MFI (n=3 tumors per condition). […] FIG. 1C: CD47 and PD-L1 protein levels in Jurkat and CCRF-CEM cells were quantified by flow cytometry MFI following MYC inhibition by conditional shRNA knockdown or 10 μM JQ1 treatment (n=3 biological replicates). […]

The subject of assay [2] is primary human T-ALL cells. In words: CD47, PD-L1, CD8 and MYC expression in primary human T-ALL samples. The class given is cell-based. The note with it: 48 h; for CD8 expression / CD47 cell surface expression / PD-L1 cell surface expression: four primary human T-ALL samples, flow cytometry MFI, 10 μM JQ1, 10 μM cisplatin or shRNA. Here is the method: (§5) Hematopoietic tumor cell lines (MYC T-ALL 4188 cells derived from the transgenic mouse model, human P493-6, human T-ALL Jurkat, and human T-ALL CCRF-CEM) were grown in RPMI 1640 supplemented with 10% FBS, 1% penicillin/streptomycin, 50 μM 2-mercaptoethanol at 37° C. in 5% CO2. Solid human tumor cell lines (H1299, SKMEL28), mouse MYC HCC, and human HEPG2 were grown in DMEM supplemented with 10% FBS and 1% penicillin/streptomycin at 37° C. in 5% CO2. To turn off expression of the MYC transgene, cells were treated with 20 ng/mL Dox. Primary human T-ALL cells were obtained from four deidentified patient samples and were cultured as previously described (Bruserud et al. 2003). Briefly, cells were cultured in StemSpan H3000 (StemCell) supplemented with human stem cell factor (50 ng/ml), human IL-7 (20 ng/ml), human IL-3 (20 ng/ml), and human FLT3 ligand (20 ng/ml) (Peprotech). Human cell lines were purchased from ATCC.
(§6) shRNA-mediated knockdowns were performed with the pLKO.1 lentiviral vector containing either control, CD47, or PD-L1-specific shRNA. shRNA-mediated knockdown of human MYC was performed with the pLKO.1 lentiviral vector containing a scrambled control or MYC shRNA (Sigma). PD-L1 shRNA on a pLKO.1-puro backbone was purchased from Sigma and CD47 shRNA (Sigma) was cloned into a pLKO.1-Hygro backbone (Addgene). The plasmids were transfected into packaging cells and virus-containing medium supernatants were used to infect tumor cells using polybrene methodology. For conditional knockdowns, stable cell lines were generated and the time course following MYC inactivation with 20 ng/mL Dox is indicated. For stable knockdowns, the time course is indicated as the time post-viral infection.
(§7) All tissues and cells were flash-frozen in liquid nitrogen and stored at −80° C. until RNA preparation. RNA was isolated using the TRIzol Reagent (Invitrogen) according to manufacturer instructions. cDNA was synthesized using SuperScriptIII (ThermoFisher). qPCR was performed using specific primers (Table 51) and the SYBR Green qPCR Kit (Roche) in an Applied Biosystems Real-Time PCR System (Life Technologies) with QuantStudio12K Flex Software. Data was analyzed using the cycle threshold method (normalized to UBC). A minimum of 3 biological and 3 technical replicates were used for all qPCR experiments.
(§8) Tissues were manually dissociated between microscope slides and strained to remove debris. Lysis buffer (0.15 M NH4Cl, 10 mM KHCO3, 0.1 mM EDTA pH 7.3) was used to remove red blood cells. Cells were washed and resuspended in cold flow cytometry buffer (1% FBS, 0.1% sodium azide in PBS). Staining was performed according to manufacturer instructions with the indicated antibodies (eBioscience). Labeled cells were analyzed on a FACSCalibur (Becton Dickinson), and data was analyzed using FlowJo (Treestar). Each plot is representative of three or more animals. Annexin-V and 7-AAD were used according to manufacturer's protocol (eBioscience).
FIG. 6A-6B: MYC mRNA levels before and after treatment with shRNA against MYC or treatment with JQ1. MYC mRNA was measured by qPCR in human T-ALL cell lines (A, n=3) and primary human T-ALL (B, n=4) cells following MYC inhibition by shRNA or JQ1 treatment after the indicated number of hours (0-48 h for human T-ALL cell lines, 48 h for primary T-ALL).
FIG. 9A: CD47 and PD-L1 protein levels in primary human T-ALL tumor samples were quantified by flow cytometry, following 48 h treatment with control scramble shRNA or MYC-targeting shRNA. FIG. 9B: CD47, PD-L1, or CD8 protein levels in primary human T-ALL tumor samples were quantified by flow cytometry MFI, following 48 h treatment with control scramble shRNA or MYC-targeting shRNA, or treatment with 10 μM JQ1 or 10 μM cisplatin (n=4 distinct patient samples). Means±SEM are shown.
A general note: A flow cytometer gives signals particle by particle.

The subject of assay [3] is human T-ALL cell line CCRF-CEM. Description: CD47, PD-L1 and MYC expression in CCRF-CEM cells after MYC inhibition. Type of assay: cell-based. How it is done:
as §1, §2, §3, §4

For assay [4], the system named is human melanoma cell line SKMEL28. Description: CD47 and PD-L1 mRNA and protein in SKMEL28 cells after MYC inactivation. Type of assay: cell-based. Conditions: 48 hours, 10 μM JQ1 or MYC shRNA knockdown. How it is done: as §5, §6, §7, §3
(§9) FIG. 2A and FIG. 2B: The mRNA and protein levels of MYC, CD47, and PD-L1 in human melanoma SKMEL28 and human NSCLC H1299 cells were determined by qPCR and flow cytometry MFI, respectively, 48 hours after MYC inactivation in vitro. […]

Assay [5] concerns human non-small cell lung cancer (NSCLC) cell line H1299. Description: CD47 and PD-L1 mRNA and protein in H1299 cells after MYC inactivation. Type of assay: cell-based. The note with it: 48 hours, 10 μM JQ1 or MYC shRNA knockdown. How it is done: as §5, §6, §7, §3, §9
The test system of assay [6] is cells derived from mouse MYC-driven HCC. Description: CD47 and PD-L1 protein levels in mouse MYC-driven HCC cells after chemotherapy treatment. Conditions: flow cytometry MFI. Type of assay: cell-based. How it is done: as §1, with “2003).” for “2003). Briefly, cells were cultured in StemSpan H3000 (StemCell) supplemented with human stem cell factor (50 ng/ml), human IL-7 (20 ng/ml), human IL-3 (20 ng/ml), and human FLT3 ligand (20 ng/ml) (Peprotech). Human cell lines were purchased from ATCC.”
as §3
FIG. 8A: CD47 and PD-L1 protein levels in cells derived from mouse MYC-driven HCC, following MYC inactivation or chemotherapy treatment, were quantified by flow cytometry MFI (n=3). FIG. 8B: CD47 and PD-L1 mRNA levels were quantified by qPCR and protein levels were quantified by flow cytometry in primary tumors from mouse MYC-driven HCC, following MYC inactivation (n=3 tumors per condition). […]

For another assay, the system named is MYC T-ALL 4188 cells. Description: Chemotherapeutic drug treatment of MYC T-ALL cells, surface protein levels by flow cytometry. Type of assay: cell-based, mouse. Conditions: for CD3 expression / CD8 expression / CD25 expression / CD69 expression / CD47 expression / PD-L1 expression: MYC T-ALL 4188 cells, 10 μM; for CD3 expression / CD8 expression / CD25 expression / CD69 expression: flow cytometry; for CD47 expression / PD-L1 expression: flow cytometry MFI; for tumor cell death: MYC T-ALL cells, 10 μM each. Here is the method: as §5, §8
FIG. 7A: CD47 and PD-L1 protein levels in MYC T-ALL 4188 cells treated with prednisone, cytoxan, cisplatin, or vincristine (10 μM each) were quantified by flow cytometry MFI. Means±SEM are shown, n=3. FIG. 7B-7E: CD3, CD8, CD25, and CD69 protein levels in MYC T-ALL 4188 cells treated as in FIG. 7A were quantified by flow cytometry. Means±SEM are shown (n=3).

Setting [7] is: Jurkat, protein by flow cytometry MFI, conditional shRNA knockdown or 10 μM JQ1.
The mark [8] stands for this setting: human T-ALL cell lines, qPCR, 0-48 h.
[9] abbreviates: CCRF-CEM, protein by flow cytometry MFI, conditional shRNA knockdown or 10 μM JQ1.

For the molecule `Cc1sc2c(c1C)C(c1ccc(Cl)cc1)=N[C@@H](CC(=O)OC(C)(C)C)c1nnc(C)n1-2` [JQ1], in assay [1] (setting [7]), the “expression of CD47” value is “reduced” and the “expression of PD-L1” value is “reduced”. The “expression of MYC mRNA” value in assay [1] (setting [8]) is “reduced”. Also, in assay [2], the CD8 expression entry is listed as “unaffected”, the “CD47 cell surface expression” value is “reduced” and the “PD-L1 cell surface expression” value was “reduced”. Besides, the “expression of MYC mRNA” value in assay [2] (primary human T-ALL cells, qPCR) is listed as “reduced”. In assay [3] (setting [9]), the “expression of CD47” value is given as “reduced” and the “expression of PD-L1” value is “reduced”. For the same molecule, the “expression of MYC mRNA” value in assay [3] (setting [8]) was “reduced”. For the same molecule, in assay [4] (flow cytometry MFI), the “expression of CD47 protein” value is on record as “reduced” and the “expression of PD-L1 protein” value was “reduced”. For the same molecule, in assay [4] (qPCR), the “expression of CD47 mRNA” value was “reduced” and the “expression of PD-L1 mRNA” value is “reduced”. Further, in assay [5] (flow cytometry MFI), the “expression of CD47 protein” value was “reduced” and the “expression of PD-L1 protein” value was “reduced”. Also, in assay [5] (qPCR), the “expression of CD47 mRNA” value was “reduced” and the “expression of PD-L1 mRNA” value is on record as “reduced”.
Turning to `N.N.[Cl][Pt][Cl]` [cisplatin], in assay [2], the CD8 expression result is listed as “unaffected”, the “CD47 cell surface expression” value is on record as “increased” and the “PD-L1 cell surface expression” value was “increased”. Also, in assay [6], the “expression of CD47 protein” value is recorded as “unaffected” and the “expression of PD-L1 protein” value is “unaffected”. Besides, in the assay on MYC T-ALL 4188 cells, the CD3 expression entry was “no effect”, the CD8 expression entry was “no effect”, the CD25 expression entry is given as “no effect” and the CD69 expression result was “no effect”. In the assay on MYC T-ALL 4188 cells, the CD47 expression result is recorded as “either unaffected or showed increased expression”, the PD-L1 expression entry is “either unaffected or showed increased expression” and the tumor cell death result was “tumor cell death”.
As for `O=P1(N(CCCl)CCCl)NCCCO1` (stereo not drawn) [cytoxan], in the assay on MYC T-ALL 4188 cells, the CD3 expression result is recorded as “no effect”, the CD8 expression result was “no effect”, the CD25 expression result is given as “no effect” and the CD69 expression result is “no effect”. Besides, in the assay with MYC T-ALL 4188 cells, the CD47 expression entry is given as “either unaffected or showed increased expression”, the PD-L1 expression entry was “either unaffected or showed increased expression” and the tumor cell death entry was “tumor cell death”.
In the case of `C[C@]12C=CC(=O)C=C1CC[C@@H]1[C@@H]2C(=O)C[C@@]2(C)[C@H]1CC[C@]2(O)C(=O)CO` [prednisone], in the assay on MYC T-ALL 4188 cells, the CD3 expression result is given as “no effect”, the CD8 expression result is listed as “no effect”, the CD25 expression entry is listed as “no effect” and the CD69 expression entry is recorded as “no effect”. Also, in the assay on MYC T-ALL 4188 cells, the CD47 expression result is “either unaffected or showed increased expression”, the PD-L1 expression entry was “either unaffected or showed increased expression” and the tumor cell death result is “tumor cell death”.
Regarding `CC[C@]1(O)C[C@H]2CN(CCc3c([nH]c4ccccc34)[C@@](C(=O)OC)(c3cc4c(cc3OC)N(C=O)[C@H]3[C@@](O)(C(=O)OC)[C@H](OC(C)=O)[C@]5(CC)C=CCN6CC[C@]43[C@@H]65)C2)C1` [vincristine], in the assay on MYC T-ALL 4188 cells, the CD3 expression result is reported as “no effect”, the CD8 expression result is “no effect”, the CD25 expression entry is on record as “no effect” and the CD69 expression result is given as “no effect”. For the same molecule, in the assay on MYC T-ALL 4188 cells, the CD47 expression entry is given as “either unaffected or showed increased expression”, the PD-L1 expression result was “either unaffected or showed increased expression” and the tumor cell death entry is listed as “tumor cell death”.
